Columns and labels:
[1] = test system: A549 (epithelial lung adenocarcinoma cells); assay: MTT cytotoxicity assay; type: cell-based, human; conditions: A549, 48 h
Description: (§1) Cell culture. Epithelial ovarian carcinoma cells (A2780) that acquired resistance to cisplatin epithelial ovarian carcinoma cells (A2780cis), colon adenocarcinoma cells (SW480) and epithelial lung adenocarcinoma cells (A549) were provided by Sigma Aldrich. A549 and SW480 cells were grown in Dulbecco′s Modified Eagle′s Medium (DMEM), supplemented with 10% Fetal Bovine Serum (FBS) and 1% penicillin, streptomycin and 1% glutamine for A549 and 1% amphotericin B for SW480. The A2780 and A2780cis were grown in RPMI 1640 supplemented with 10% Fetal Bovine Serum (FBS), 1% glutamine and 1% penicillin, streptomycin and amphotericin B. All cells were incubated in a humidified incubator at 37 °C under a 5% CO2 atmosphere and grown in 100 mm culture dishes to approximately 70–80% confluence. For subculturing, cells were detached with Trypsin-EDTA (Sigma). A549-gal were derived from A549 cultured in glucose-free medium supplemented with 10 mM galactose (Sigma) for at least 10 passes.
(§2) Cytotoxicity. MTT Assay and IC50 estimation. The cytotoxicity of 1[C,NH-Cl], 2[C,NMe-Cl], 3[N,NH-Cl]Cl, 4[N,NMe-Cl]Cl, 5[CNH2,NH-Cl]Cl, 6[CNH2,S-Cl]Cl, 7[CO,NH-Cl] and 8[CO,S-Cl] in A2780, A2780cis, SW480 and A549 carcinoma cells was evaluated by the MTT colorimetric assay. Cells were seeded in 96-well plates at 5000 cells per well and incubated at 37 °C, 5% CO2. After 24 h, the medium was removed and replaced with fresh medium with different concentrations of the compounds under study, and they were incubated for 48 h. Final DMSO concentration was kept below 0.7% in wells. For a negative control, one sequence of cells was left untreated and for vehicle control, cells treated with DMSO were included. For cell viability experiments preincubating with NAC (N-Acetyl-L-Cysteine), the cells were pre-treated with NAC, 10 mM for 2 h before the incubation with complex 1[C,NH-Cl] for 24 h. Then, the medium was removed from the wells, and 100 µL MTT (5 mg/mL) was added. After an incubation time of 4 h, 100 μL of solubilizing detergent solution (SDS, 10% in HCL 0.01 M) was added and kept in the incubator overnight. Cell growth inhibition was detected by measuring the absorbance of each well at 595 nm using a BioTek Cytation5 microplate reader. Each test was repeated in quadruplicate in three independent experiments for each cell line. The percentage of survival cells was calculated using absorbance measurements compared with control and the IC50 estimation using Graph Pad Prism version 6.01.

[2] = test system: A2780 (epithelial ovarian carcinoma cells); assay: MTT cytotoxicity assay; type: cell-based, human; conditions: A2780, 48 h
Description: as §1, §2

[3] = test system: A2780cis (ovarian, acquired resistance to cisplatin); assay: MTT cytotoxicity assay; type: cell-based, human; conditions: 48 h; for IC50: A2780cis
Description: as §1, §2

[4] = test system: SW480 (colon adenocarcinoma cells); assay: MTT cytotoxicity assay; type: cell-based, human; conditions: SW480, 48 h
Description: as §1, §2

Calf thymus DNA [5] = assay: DNA melting temperature (DSC); type: binding; conditions: as a function of CD/CP, overnight incubation
Description: Differential scanning calorimetry (DSC) studies were performed in a nano DSC (TA Instruments, Newcastle, USA) to determine the melting temperature of DNA in the absence and in the presence of different amount of the Ir(III) complexes. Cells were 300 μL platinum capillary tubes. Measurements were performed by heating the dye/polynucleotide system from 20 to 90 °C, at 1 °C/min scan rate and 3 atm pressure. To reduce the formation of bubbles upon heating to a minimum, the reference and the sample solutions were previously degassed for 30 min in a degassing station (TA Instruments, Newcastle, USA). The thermograms recorded were analysed with the NanoAnalyze 2.0 software. The buffer–buffer baseline was run at least five heating/cooling cycles until the heating was reproducible, and then, it was subtracted from the sample data.

Calf thymus DNA [6] = assay: DNA viscosity measurements; type: binding; conditions: as a function of CD/CP, overnight incubation
Description: Viscosity measurements were performed using a Micro-Ubbelohde viscometer whose temperature was controlled externally (25 ± 0.1 °C). The flow time was measured with a digital stopwatch. Mean values of triplicated measurements were taken to evaluate the DNA viscosity in the absence (η0) and in the presence, (η) of iridium complexes. The viscosity readings were expressed as L/L0 = (η/η0)^1/3 versus the CD/CP ratio. The data was analysed using […] where t0 and tDNA are the buffer and polynucleotide solution flow times, respectively, whereas t is the flow time of the Ir-complex/DNA mixture after the stabilization period.

plasmid DNA (pUC18) = assay: Agarose gel electrophoresis of plasmid DNA; type: binding, Escherichia coli; conditions: pUC18 20 µM, overnight 37 °C
Description: Agarose Gel electrophoresis of plasmid DNA Overnight cultures of the strain DH5α of Escherichia coli were isolated with the Quiagen DNA purification kit. Then, 20 µM (in base pairs) of plasmid DNA (pUC18) was incubated with different concentrations of the synthesized iridium complexes overnight at 37 °C. Afterwards, 2 μL of loading buffer were added to 10 μL of the incubated samples and loaded onto a 1% agarose gel. Electrophoresis was run in TAE 1× at 6.5 V/cm during 2.5 h. Then, the agarose gel was stained with ethidium bromide 1 μg/mL and visualized with a Gel Doc XR+ Imaging System (Bio-Rad, Hercules, CA, USA).

[7] = test system: ROS (superoxide anion, hydrogen peroxide); assay: ROS generation (DHE and H2DCFDA, flow cytometry); type: cell-based; conditions: after 3 h
Description: Specific assays with 1[C,NH] complex were performed according to manufacturer’s instructions using the following reagents from Molecular Probes (Thermo Fisher Scientific): Measurements of ROS: Dihydroethidium (DHE, D11347) and 2′, 7′-dichlorodihydrofluorescein diacetate (H2DCFDA, D399); detection of caspases 3/7: CellEvent Caspase-3/7 Green Detection Reagent (C10423); Cell viability: Live/Dead Cell Imaging Kit (R37601); Analysis of cytosolic calcium concentration: Fluo3/AM (F23915); Analysis of MMP: Tetramethylrhodamine methyl ester perchlorate (TMRM, T668). RT-qPCR’s assays were performed with the following primers/probes from Thermo Fisher Scientific: DCP1A (Hs00218198-m1), FOSB (Hs00171851-m1), EGR1(Hs0015928-m1), ATF3 (Hs00231069-m1), DDIT3 (Hs00358796-g1), PP1R15A (Hs00169585-m1), CHAC1(Hs00225520-m1), MIR9-1 (Hs04231512-s1), ATP1B2 (Hs00155922-m1), BBC3 (Hs00248075-m1), BCL2L11 (Hs00798019-s1), PMAIP1 (Hs00560402-m1), SKP2 (Hs01021864-m1) and HIST1H1B (Hs00271207-s1). RT-qPCR experiments were performed as described.

Row | SMILES | IC50 [1] | IC50 [2] | Resistance Factor (RF) IC50,A2780CIS/IC50,A2780 [3] | IC50 [3] | IC50 [4] | ∆Tm of DNA (Calf thymus DNA [5]) | Relative viscosity of DNA (L/L0) (Calf thymus DNA [6]) | Migration pattern of plasmid DNA (plasmid DNA (pUC18)) | DHE fluorescence (superoxide anion levels) [7]
1 | Cc1c(C)c(C)[c-](C)c1C.[Cl][Ir]1[c]2ccccc2-c2[nH]c3ccccc3[n+]21 [1[C,NH], [(η^5-Cp*)IrCl(κ^2-N,C-pbim)]] | 10 ± 1 µM | 5 ± 2 µM | no cross-resistance | 5 ± 1 µM | 5 ± 2 µM | 0 oC | No variations | unable to interact with DNA | increased
2 | Cc1c(C)c(C)[c-](C)c1C.Cn1c2[n+](c3ccccc31)[Ir]([Cl])[c]1ccccc1-2 [2[C,NMe], [(η^5-Cp*)IrCl(κ^2-N,C-NMepbim)]] | 10 ± 1 µM | 9 ± 1 µM | no cross-resistance | 13 ± 1 µM |  | 0 oC | No variations | unable to interact with DNA | increased
3 | Cc1c(C)c(C)[c-](C)c1C.[Cl-].[Cl][Ir]1[n+]2ccccc2-c2[nH]c3ccccc3[n+]21 [3[N,NH], [(η^5-Cp*)IrCl(κ^2-N,N-pybim)]Cl] | > 100 µM | 84 ± 1 µM |  | 48 ± 1 µM | 90 ± 1 µM | -35 oC | drastically declined |  | 
4 | Cc1c(C)c(C)[c-](C)c1C.Cn1c2[n+](c3ccccc31)[Ir]([Cl])[n+]1ccccc1-2.[Cl-] [4[N,NMe], [(η^5-Cp*)IrCl(κ^2-N,N-pyMebim)]Cl] | > 100 µM | > 100 µM |  | > 100 µM | > 100 µM | -14 oC |  |  | 
5 | Cc1c(C)c(C)[c-](C)c1C.[Cl-].[Cl][Ir]1[NH2+]c2ccccc2-c2[nH]c3ccccc3[n+]21 [5[CNH2,NH], [(η^5-Cp*)IrCl(κ^2-N,N-apbim)]Cl] | > 100 µM | 17 ± 1 µM |  | 30 ± 1 µM | 34 ± 1 µM | +5 oC |  |  | 
6 | Cc1c(C)c(C)[c-](C)c1C.[Cl-].[Cl][Ir]1[NH2+]c2ccccc2-c2sc3ccccc3[n+]21 [6[CNH2,S], [(η^5-Cp*)IrCl(κ^2-N,N-apbtz)]Cl] | > 100 µM | > 100 µM |  | 48 ± 2 µM | 40 ± 1 µM | +21 oC |  |  | 
7 | Cc1c(C)c(C)[c-](C)c1C.[Cl][Ir]1[O]c2ccccc2-c2[nH]c3ccccc3[n+]21 [7[CO,NH], [(η^5-Cp*)IrCl(κ^2-O,N-hpbim)]] | 43 ± 3 µM | 14 ± 1 µM | > 2 | 42 ± 1 µM | > 100 µM | 0 oC |  |  | 
8 | Cc1c(C)c(C)[c-](C)c1C.[Cl][Ir]1[O]c2ccccc2-c2sc3ccccc3[n+]21 [8[CO,S], [(η^5-Cp*)IrCl(κ^2-O,N-hpbtz)]] | 41 ± 5 µM | 2 ± 1 µM | > 2 | 6 ± 2 µM | 34 ± 1 µM | 0 oC |  |  | increased

— PMC9818021, “Targets, Mechanisms and Cytotoxicity of Half-Sandwich Ir(III) Complexes Are Modulated by Structural Modifications on the Benzazole Ancillary Ligand” (Cancers, 2022)
